Assay: in vitro
Details: human, hela cells, % viability

Compound	viability at 28.5 h, 10 µM [%]
O=C(O)CCN1C(=O)c2ccc(Oc3ccc([N+](=O)[O-])cc3)cc2C1=O [CBK263357]	96.2
COc1cccc(CC(=O)N2CCC(Cc3ccccc3-c3ccccc3)(C(N)=O)CC2)c1 [CBK285730]	96.7
O=C(c1ccc2ccccc2c1)N1CCC2(CC1)CN(Cc1ccccc1)CCO2 [CBK161118A]	94.1
NS(=O)(=O)c1ccc(CCNC(=O)c2ccc3c(c2)OCCO3)cc1 [CBK268128]	104
CC(=O)N1CCC[C@@H]1C(=O)N1CC[C@@H]2NC(=O)[C@H](Cc3ccccc3)NC(=O)C3(C/C=C/C[C@@H]2C1)CCOCC3 [CBK292195]	104
CC1(C)[C@H]2CC[C@]1(C)[C@@H](OCCNc1ccccc1)C2 [CBK021967]	87.8
Cn1c2ccccc2c2ncn(CCCO)c(=O)c21 [CBK287951]	56.9
CN(C)S(=O)(=O)c1ccc(C(=O)C2=C(O)C(=O)N(CCN3CCOCC3)C2c2ccco2)cc1 (centres unmarked) [CBK264521]	93.4
Oc1cc(C(F)(F)F)nc2[nH]nc(-c3cccs3)c12 [CBK008498]	106
Cc1ccccc1Sc1cc(C(F)(F)F)ccn1 [CBK115233]	94.4
O=c1[nH]c(=O)c2ccn([C@H]3C[C@@H](O)[C@@H](CO)O3)c2[nH]1 [CBK201331]	99
COc1ccc(C2(NC(=O)Cn3ccnc3)CCCCC2)cc1 [CBK283661]	84
CC(/C=C1\SC(=S)N(CCC(=O)Nc2ccc(O)c(C(=O)O)c2)C1=O)=C\c1ccccc1 [CBK263875]	107
O=C(O)CCCC(=O)NC(Cc1ccccc1)C(=O)Nc1ccc([N+](=O)[O-])cc1 (centres unmarked) [CBK299806]	84.5
O=c1[nH]c2ccccc2n1C1CCN(S(=O)(=O)c2ccc(OC(F)(F)F)cc2)CC1 [CBK149690]	93.8
Cc1c(C)n(CC(O)CN2C(=O)c3ccccc3S2(=O)=O)c2ccccc12 (centres unmarked) [CBK263960]	88.2
COc1nccnc1OC1CCN(CCc2ccc3ccccc3c2)CC1 [CBK084264]	107
CC(=O)Nc1ccc(C(=O)CSc2nc(-c3ccccc3)c(-c3ccccc3)o2)cc1 [CBK266168]	87.6
COc1cnc(-c2ccccc2OC)c(NC(C)=O)n1 [CBK145259]	89.1
Cc1nn(C)c(=O)c2c(C)noc12 [CBK001462]	101
O=C(Cc1c[nH]c2ccccc12)N1CCC2(CCCN(C(=O)c3cccnc3)C2)C1 (centres unmarked) [CBK131604]	103
O=C(O)c1c(-c2ccccc2)oc2ccc(NS(=O)(=O)c3ccc(F)cc3)cc12 [CBK299817]	89.9

Compound	viability at 28.5 h, 10 µM [%]
Cn1cc(-c2ncc(OCc3ccc4c(c3)OCO4)nc2N)cn1 [CBK145168]	105
O=C(CN1C(=O)c2ccccc2C1=O)Nc1cccc(C(=O)O)c1 [CBK287040]	110
COc1ccc(-n2c(C)c([N+](=O)[O-])c3ccc(O)c(CNCCCO)c32)cc1 [CBK263504C]	88.4
O=C(O)C1CCCN(C(=O)NCC2COc3ccccc3O2)C1 (centres unmarked) [CBK161342]	121
CC(=O)Nc1ccc(NCc2nc(C(C)C)no2)c(C(F)(F)F)c1 [CBK305743]	101
CCOC(=O)C1(C2CCCCC2)CCN(C(=O)c2cscn2)CC1 [CBK137101]	82.1
CCn1c(C)cc2cc(NS(=O)(=O)c3cn(C)nc3C)ccc21 [CBK282789]	93.5
CC(C)(C)OC(=O)N1CCC(CNS(C)(=O)=O)CC1 [CBK003925]	78
Cc1ccc(OCC(=O)N2CCN(S(=O)(=O)c3ccc4ccccc4c3)CC2)cc1 [CBK264200]	115
O=C1c2ccccc2C(=O)N1CCc1nn2c(-c3cccnc3)nnc2s1 [CBK269793]	97.9
COc1ccc(C)cc1S(=O)(=O)n1ccc2c(CNC3CCN(C)CC3)cccc21 [CBK113308T]	90.6
O=C(NCCN1CCOCC1)C1CCN(Cc2ccccc2O)CC1 [CBK264324]	101
Cc1cc(C)c2c(n1)OC(N1CCOCC1)(C(F)(F)F)CC2=O (centres unmarked) [CBK267301]	79.2
Cc1cc(C)nc(Nc2n[nH]c(-c3ccccc3Cl)n2)n1 [CBK288167]	98.2
CC(C)(C)OC(=O)N1CCN(c2cc(Cl)nc(N)n2)CC1 [CBK003505]	91.8
C[C@@H](c1ccccc1)n1c(=O)[nH]c2ncc(-c3cccc4ncccc34)nc21 [CBK064394]	116
O=C(O)CC(C(=O)N1CCOCC1)N1CCCCC1 (centres unmarked) [CBK287074]	98.7
CC(=O)c1cc(CN2CCCOC(Cn3cccn3)C2)cs1 (centres unmarked) [CBK307365]	84.3
O=C(N[C@H]1CCCC[C@H]1N1CCCC1)N[C@H]1CCCC[C@H]1N1CCCC1 [CBK003419]	115
N#Cc1cccnc1N1CC(C(=O)O)C2(CCC2)C1 (centres unmarked) [CBK304415]	93.7
Cc1cc(C)c(-c2csc(NS(=O)(=O)c3cccc(C(=O)O)c3)n2)cc1C [CBK296698]	118
CC1=C[C@@H](CNC(=O)c2ccccn2)[C@H](C(C)C)C[C@H]1CC(=O)N1CCCC1 [CBK289207]	86.5

Compound	viability at 28.5 h, 10 µM [%]
CSCCc1[nH]c(SCC(=O)Nc2cccc3ccccc23)nc1C [CBK266097]	91.3
O=C(CSc1nnnn1-c1ccccc1)Nc1nsc(-c2ccccc2)n1 [CBK267192]	108
Cc1nc(Cc2nc(-c3ccc4c(c3)CCCN4S(C)(=O)=O)cs2)cs1 [CBK304542]	97.3
CS(=O)(=O)N1CCC2(CC1)Cn1c(cc3ccccc31)C(=O)O2 [CBK282820]	87.1
Fc1cccc(Nc2nc(C3CCNCC3)c3ccccn23)c1 [CBK281522]	107
CC(=O)c1cccc(NC(=O)N(Cc2ccco2)CC2CCCO2)c1 (centres unmarked) [CBK304467]	104
CCC(NC(=O)CCN1Cc2ccccc2C1=O)c1ccc(F)cc1 (centres unmarked) [CBK282657]	104
O=C(CSc1cc(Cl)ccc1Cl)Nc1cccc(Cl)c1 [CBK263712]	113
CC(C)n1c(NCc2ccccc2)nc2c1c(=O)n(C)c(=O)n2C [CBK140094]	78.2
CC(C)(C)c1cc(NC(=O)c2csc3c(C(F)(F)F)cc(N4CCN(Cc5ccccc5)CC4)nc23)no1 [CBK028962]	108
COc1ccc(-c2nn(CC(=O)O)cc2/C=C/c2cc(C(F)(F)F)nc(=O)[nH]2)cc1 [CBK287128]	86.8
Cc1ccc2ncnc(NC(CC(C)C)C(=O)O)c2c1 (centres unmarked) [CBK275388]	109
CCc1cc(C(=O)OC)c(NC(=O)CC2NCCNC2=O)s1 (centres unmarked) [CBK266990]	97.6
Cc1noc(C)c1CC(=O)NC(C)c1nc2ccccc2s1 (centres unmarked) [CBK281467]	107
COc1ccc(NC(=O)C(=O)N/N=C/c2ccc(C(=O)O)cc2)cc1 [CBK262255]	95.5
O=C(c1c(NS(=O)(=O)c2cccc3cccnc23)sc2c1CCCC2)N1CCOCC1 [CBK028655]	84.2
COc1ccc(NC(=O)CCCSc2nc(N)c3c(C)c(C)sc3n2)cc1 [CBK266547]	105
Cc1ccc(SCc2nc3ncccn3c2Br)cc1 [CBK027744]	85.2
CCOc1cc(OCC)cc(C(=O)N2CCC3(CC2)NC(=O)c2ccc(C)cc2O3)c1 [CBK166215]	117
Cc1ccc2[nH]cc(CCNC(=O)c3cccc(NC(=O)c4ccccc4)c3)c2c1 [CBK269235]	86.6
O=S(=O)(CCOc1ccccc1)N(CCOc1ccccc1)C1CCCCC1 [CBK022003]	103
O=C(O)c1cccc(S(=O)(=O)Nc2ccccc2C(=O)NCc2ccccc2)c1 [CBK296697]	106

Compound	viability at 28.5 h, 10 µM [%]
COC(=O)CCc1ccc(S(=O)(=O)N2CCCN(Cc3c[nH]c(=O)[nH]c3=O)CC2)cc1 [CBK063082]	113
O=C1S/C(=C\c2ccc(O)c([N+](=O)[O-])c2)C(=O)N1Cc1ccc(Cl)cc1 [CBK102929]	87.2
CC(C)C(=O)N1CCCC2(CC1)CN(C)Cc1ccccc1O2 (centres unmarked) [CBK285132]	103
Cn1c(=O)c2c(nc(CN3CCN(Cc4ccccc4)CC3)n2CCc2ccccc2)n(C)c1=O [CBK269523]	90.9
Cc1cc(CN(C)c2nccc(N3CCN[C@H]4CS(=O)(=O)C[C@H]43)n2)no1 [CBK306580]	109
CC(C)(O)c1cc(CC2(NCC3CCCCC3)COC2)no1 [CBK289656]	89.7
COC(=O)[C@H]1CN(C(=O)c2cn(C)nc2C)C[C@@H]1c1ccccc1F [CBK283511]	88.2
Cc1cc(C)n(-c2nc3cc(Cl)ccc3nc2NCc2ccc3c(c2)OCO3)n1 [CBK268482]	106
CN1CCN(c2ccccc2NC(=O)c2cccc3c(Br)cccc23)CC1 [CBK267894]	92.9
Cn1c(=O)n(C)c2cc(CNC(=O)COCC3CCCCO3)ccc21 (centres unmarked) [CBK307061]	109
O=C(O)CSc1nc(Nc2ccccc2)nc(N2CCOCC2)n1 [CBK269023]	107
CN1C(=O)COc2ccccc2C/C=C/C[C@@H]2[C@H]1CCCN2C(=O)c1cnn2cccnc12 [CBK292083]	109
CC(=O)Oc1cccc(N2C(=O)c3ccc(Oc4cccc(N)c4)cc3C2=O)c1 [CBK261099]	96.4
O=C(NC1CC2(CCOCC2)Oc2ccccc21)c1cccs1 (centres unmarked) [CBK285377]	85.6
O=C(CSc1ccccc1)Nc1cc(Cl)ccc1O [CBK265837]	109
O=C(NC1CCN(Cc2ccccc2)CC1)c1cnc(-c2ccc(Cl)cc2)c(-c2cccnc2)c1 [CBK037602]	92.2
O=C(OCCc1c[nH]c2ccccc12)N1CCOCC1 [CBK200415]	106
O=C(O)CCC(CCC(=O)O)C(=O)O [CBK260994]	95.1
OCCOc1cccc(-c2nnco2)c1 [CBK000033]	98.6

Same assay, conditions: human, hela cells, % viability, bulk resorufin, single well

Compound	viability at 28.5 h, 10 µM [%]
O=C1NC(=O)C(=Cc2ccccc2OS(=O)(=O)c2ccc3ccccc3c2)C(=O)N1 [CBK263599]	64
